Columns and labels:
Settings in all cases: treatment: drug + dasatinib (fixed dose, not stated); 5 days
[1] = tested on: 769-P; test: GI50 of drug in presence of dasatinib; higher = less potent
Method: (§1)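 Primary HTS combination arm: 8 RCC cell lines treated with 8 doses (up to 10 uM) of each library drug plus a fixed dose of dasatinib (dose not stated) for 5 days; viability read by CellTiter-Glo and normalised to DMSO. GI50 was fitted with XLfit, AUC is the area under the dose-response curve, and minimum viability is the lowest fraction of DMSO viability across doses.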

[2] = tested on: UO-31; test: as above
Method: as §1

[3] = tested on: CAKI-1; test: as above
Method: as §1

[4] = tested on: A498; test: as above
Method: as §1

[5] = tested on: TK-10; test: as above
Method: as §1

[6] = tested on: 786-O; test: as above
Method: as §1

[7] = tested on: ACHN; test: as above
Method: as §1

[8] = tested on: SN12C; test: as above
Method: as §1

[9] = tested on: 769-P; test: AUC of dose-response viability curve, drug + dasatinib, normalised to DMSO (arbitrary (AUC of normalised viability)); higher = less growth inhibition
Method: as §1

[10] = tested on: UO-31; test: as above
Method: as §1

[11] = tested on: CAKI-1; test: as above
Method: as §1

[12] = tested on: A498; test: as above
Method: as §1

[13] = tested on: TK-10; test: as above
Method: as §1

[14] = tested on: 786-O; test: as above
Method: as §1

[15] = tested on: ACHN; test: as above
Method: as §1

[16] = tested on: SN12C; test: as above
Method: as §1

[17] = tested on: 769-P; test: minimum viability across doses, drug + dasatinib, relative to DMSO (fraction); higher = less growth inhibition
Method: as §1

[18] = tested on: UO-31; test: as above
Method: as §1

[19] = tested on: CAKI-1; test: as above
Method: as §1

[20] = tested on: A498; test: as above
Method: as §1

[21] = tested on: TK-10; test: as above
Method: as §1

[22] = tested on: 786-O; test: as above
Method: as §1

[23] = tested on: ACHN; test: as above
Method: as §1

[24] = tested on: SN12C; test: as above
Method: as §1

SMILES	GI50 of drug [6] [µM]	GI50 of drug [7] [µM]	GI50 of drug [1] [µM]	GI50 of drug [2] [µM]	GI50 of drug [3] [µM]	GI50 of drug [4] [µM]	GI50 of drug [5] [µM]	GI50 of drug [8] [µM]	AUC of dose-response viability curve [9]	AUC of dose-response viability curve [10]	AUC of dose-response viability curve [11]	AUC of dose-response viability curve [12]	AUC of dose-response viability curve [13]	AUC of dose-response viability curve [14]	AUC of dose-response viability curve [15]	AUC of dose-response viability curve [16]	minimum viability across doses [17]	minimum viability across doses [18]	minimum viability across doses [19]	minimum viability across doses [20]	minimum viability across doses [21]	minimum viability across doses [22]	minimum viability across doses [23]	minimum viability across doses [24]
C=CC(=O)Nc1cccc(Sc2nc(Nc3ccc(N4CCN(C)CC4)cc3)ncc2Cl)c1 [WZ8040] + Cc1nc(Nc2ncc(C(=O)Nc3c(C)cccc3Cl)s2)cc(N2CCN(CCO)CC2)n1 [dasatinib]	1.48	0.127	1.16	2.34	1.65	8.3	0.652	3.88	2.02	2.72	1.96	3.23	1.96	2.05	1.5	2.18	0.0198	0.0164	0.00162	0.113	0.0196	0.00713	0.00268	0.00446
COC[C@H]1OC(=O)c2coc3c2[C@@]1(C)C1=C(C3=O)[C@@H]2CCC(=O)[C@@]2(C)C[C@@H]1OC(C)=O [Wortmannin] + Cc1nc(Nc2ncc(C(=O)Nc3c(C)cccc3Cl)s2)cc(N2CCN(CCO)CC2)n1 [dasatinib]	0.0325	0.0414	> 10	> 10	0.0158	0.0848	> 10	0.0534	2.25	2.3	1.38	2.76	2.46	1.62	1.87	2.16	0.487	0.688	0.123	0.153	0.633	0.00996	0.425	0.342
Cc1ccc(S(=O)(=O)Nc2nc3ccccc3nc2Nc2ccc3nsnc3c2)cc1 [XL147] + Cc1nc(Nc2ncc(C(=O)Nc3c(C)cccc3Cl)s2)cc(N2CCN(CCO)CC2)n1 [dasatinib]	> 10	> 10	> 10	> 10	> 10	> 10	> 10	> 10	2.42	3.44	2.82	3.43	2.87	2.67	2.12	2.42	0.634	0.909	0.764	0.924	0.743	0.642	0.551	0.651
COc1cc2nccc(Oc3ccc(NC(=O)C4(C(=O)Nc5ccc(F)cc5)CC4)cc3)c2cc1OC [XL-184 free base (Cabozantinib)] + Cc1nc(Nc2ncc(C(=O)Nc3c(C)cccc3Cl)s2)cc(N2CCN(CCO)CC2)n1 [dasatinib]	0.0295	0.267	2	1.84	0.193	8.99	2.77	0.915	2.07	2.75	1.76	3.34	2.33	2.2	1.6	2.07	0.135	0.0162	0.0187	0.442	0.136	0.25	0.0617	0.213
COCC[n+]1c2c(n(Cc3cnccn3)c1C)C(=O)c1ccccc1C2=O [YM155] + Cc1nc(Nc2ncc(C(=O)Nc3c(C)cccc3Cl)s2)cc(N2CCN(CCO)CC2)n1 [dasatinib]	> 10	0.00543	0.0107	0.045	0.00486	0.00838	0.0144	0.00839	0.63	1.3	0.385	0.476	0.933	0.302	0.479	0.503	0.00674	0.00698	0.00438	0.00896	0.0206	0.00497	0.00126	0.00231
O=C(O)c1ccc2c(c1)nc(Nc1cccc(Cl)c1)c1ccncc12 [cx-4945 (Silmitasertib)] + Cc1nc(Nc2ncc(C(=O)Nc3c(C)cccc3Cl)s2)cc(N2CCN(CCO)CC2)n1 [dasatinib]	< 0.003	3.24	> 10	> 10	1.27	> 10	> 10	> 10	2.44	4.08	2.12	2.87	2.54	1.99	2.01	2.52	0.595	0.865	0.033	0.47	0.645	0.313	0.169	0.642

Further lines, with some results ahead:

GI50 of drug [6] [µM]	GI50 of drug [7] [µM]	SMILES	GI50 of drug [1] [µM]	GI50 of drug [2] [µM]	GI50 of drug [3] [µM]	GI50 of drug [4] [µM]	GI50 of drug [5] [µM]	GI50 of drug [8] [µM]	AUC of dose-response viability curve [9]	AUC of dose-response viability curve [10]	AUC of dose-response viability curve [11]	AUC of dose-response viability curve [12]	AUC of dose-response viability curve [13]	AUC of dose-response viability curve [14]	AUC of dose-response viability curve [15]	AUC of dose-response viability curve [16]	minimum viability across doses [17]	minimum viability across doses [18]	minimum viability across doses [19]	minimum viability across doses [20]	minimum viability across doses [21]	minimum viability across doses [22]	minimum viability across doses [23]	minimum viability across doses [24]
0.618	0.0833	COC(=O)Nc1ccc(-c2nc(N3CCOCC3)c3cnn(C4CCN(Cc5cccnc5)CC4)c3n2)cc1 [WYE-687] + Cc1nc(Nc2ncc(C(=O)Nc3c(C)cccc3Cl)s2)cc(N2CCN(CCO)CC2)n1 [dasatinib]	0.481	0.572	0.153	2.28	0.231	0.414	1.81	2.8	1.51	2.89	1.79	2.02	1.38	1.78	0.074	0.00676	0.0365	0.251	0.058	0.212	0.0388	0.13
0.878	0.0723	C=CC(=O)Nc1cccc(Oc2nc(Nc3ccc(N4CCN(C)CC4)cc3)ncc2Cl)c1 [WZ3146] + Cc1nc(Nc2ncc(C(=O)Nc3c(C)cccc3Cl)s2)cc(N2CCN(CCO)CC2)n1 [dasatinib]	0.523	0.553	0.345	3.06	0.373	0.997	1.85	2.32	1.47	2.76	1.76	1.88	1.21	1.92	0.056	0.00923	0.00112	0.301	0.0372	0.0305	0.034	0.0852
0.118	0.102	FC(F)c1nc2ccccc2n1-c1nc(N2CCOCC2)nc(N2CCOCC2)n1 [ZSTK474] + Cc1nc(Nc2ncc(C(=O)Nc3c(C)cccc3Cl)s2)cc(N2CCN(CCO)CC2)n1 [dasatinib]	0.169	0.194	0.0445	1.09	0.328	0.42	1.61	1.73	1.37	2.35	1.97	1.61	1.45	1.99	0.0686	0.00787	0.0415	0.0549	0.115	0.00535	0.0709	0.159
